From patent US9487483B2, “Complement pathway modulators and uses thereof” (priority 2012, dated 2016)

The compounds below were run against Recombinant human factor D (Homo sapiens (Human), UniProt P00746) (assay: biochemical). Settings: Factor D inhibition data using Method 1; substrate Z-Lys-thiobenzyl, fluorescence readout; read-out: IC50.
Format: biochemical

Chain of Recombinant human factor D (P00746 26-253): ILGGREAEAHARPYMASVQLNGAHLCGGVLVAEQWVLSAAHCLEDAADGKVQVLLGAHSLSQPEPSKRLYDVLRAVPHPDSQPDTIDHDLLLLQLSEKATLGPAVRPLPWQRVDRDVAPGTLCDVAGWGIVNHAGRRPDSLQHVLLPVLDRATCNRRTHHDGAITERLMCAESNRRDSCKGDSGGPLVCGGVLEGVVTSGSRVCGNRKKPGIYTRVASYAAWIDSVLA

SMILES	IC50
CC1(C)CCC[C@@H](NC(=O)[C@@H]2C[C@H]3C[C@H]3N2C(=O)Cn2nc(C(N)=O)c3ccc(F)cc32)C1 [Example 60, 1-{2-[(1R,3S,5R)-3-((R)-3,3-Dimethyl-cyclohexylcarbamoyl)-2-aza-bicyclo[3.1.0]hex-2-yl]-2-oxo-ethyl}-6-fluoro-1H-indazole-3-carboxylic acid amide]	0.022 µM
COC(=O)[C@@H]1CC[C@@H](NC(=O)[C@@H]2C[C@H]3C[C@H]3N2C(=O)Cn2nc(C(C)=O)c3cccnc32)C1 [Example 13, (1R,3R)-3-({(1R,3S,5R)-2-[2-(3-Acetyl-pyrazolo[3,4-b]pyridin-1-yl)-acetyl]-2-aza-bicyclo[3.1.0]hexane-3-carbonyl}-amino)-cyclopentane carboxylic acid methyl ester]	5.97 µM
CO[C@H]1CCC[C@@H](NC(=O)[C@@H]2C[C@H]3C[C@H]3N2C(=O)Nc2cn(C(N)=O)c3ccccc23)C1 [Example 21, (1R,3S,5R)-2-Aza-bicyclo[3.1.0]hexane-2,3-dicarboxylic acid 2-[(1-carbamoyl-1H-indol-3-yl)-amide] 3-[((1R,3S)-3-methoxy-cyclohexyl)-amide]]	0.486 µM
CC(=O)c1cn(CC(=O)N2[C@@H]3C[C@@H]3C[C@H]2C(=O)N[C@@H]2CCCC(C)(C)C2)c2nnccc12 [Example 66, (1R,3S,5R)-2-[2-(5-Acetyl-pyrrolo[2,3-c]pyridazin-7-yl)-acetyl]-2-aza-bicyclo[3.1.0] hexane-3-carboxylic acid ((R)-3,3-dimethyl-cyclohexyl)-amide]	1.21 µM
NC(=O)c1nn(CC(=O)N2[C@@H]3C[C@@H]3C[C@H]2C(=O)NC2CCCC(O)(C(F)(F)F)C2)c2ccccc12 (stereo partly drawn) [Example 31, 1-{2-[(1R,3S,5R)-3-(3-Hydroxy-3-trifluoromethyl-cyclohexylcarbamoyl)-2-aza-bicyclo[3.1.0]hex-2-yl]-2-oxo-ethyl}-1H-indazole-3-carboxylic acid amide]	0.9 µM
CC1(C)C[C@H](O)C[C@@H](NC(=O)[C@@H]2C[C@H]3C[C@H]3N2C(=O)Cn2nc(C(N)=O)c3ccccc32)C1 [Example 108, 1-{2-[(1R,3S,5R)-3-((1S,5S)-5-Hydroxy-3,3-dimethyl-cyclohexylcarbamoyl)-2-aza-bicyclo[3.1.0]hex-2-yl]-2-oxo-ethyl}-1H-indazole-3-carboxylic acid amide]	2.23 µM
CO[C@H]1CCC[C@@H](NC(=O)[C@@H]2C[C@H]3C[C@H]3N2C(=O)Cn2nc(C(N)=O)c3ccccc32)C1 [Example 46, 1-{2-[(1R,3S,5R)-3-((1R,3S)-3-Methoxy-cyclohexylcarbamoyl)-2-aza-bicyclo[3.1.0]hex-2-yl]-2-oxo-ethyl}-1H-indazole-3-carboxylic acid amide]	0.478 µM
NC(=O)n1cc(NC(=O)N2[C@@H]3C[C@@H]3C[C@H]2C(=O)N[C@@H]2C=CCCC2)c2ccccc21 [Example 16, (1R,3S,5R)-2-Aza-bicyclo[3.1.0]hexane-2,3-dicarboxylic acid 2-[(1-carbamoyl-1H-indol-3-yl)-amide] 3-(S)-cyclohex-2-enylamide]	3.15 µM
CC[C@H]1CCC[C@@H](NC(=O)[C@@H]2C[C@H]3C[C@H]3N2C(=O)Nc2cn(C(N)=O)c3ccccc23)C1 [Example 23, (1R,3S,5R)-2-Aza-bicyclo [3.1.0]hexane-2,3-dicarboxylic acid 2-[(1-carbamoyl-1H-indol-3-yl)-amide] 3-[((1R,3S)-3-ethyl-cyclohexyl)-amide]]	0.016 µM
CC(=O)c1nn(CC(=O)N2[C@@H]3C[C@@H]3C[C@H]2C(=O)NC2CC(F)(F)C2)c2cnccc12 [Example 8, (1R,3S,5R)-2-[2-(3-Acetyl-pyrazolo[3,4-c]pyridin-1-yl)-acetyl]-2-aza-bicyclo[3.1.0]hexane-3-carboxylic acid (3,3-difluoro-cyclobutyl)-amide]	2.39 µM
CC1(O)CCCC(NC(=O)[C@@H]2C[C@H]3C[C@H]3N2C(=O)Cn2nc(C(N)=O)c3ccccc32)C1 (stereo partly drawn) [Example 123, 1-(2-((1R,3S,5R)-3-(3-hydroxy-3-methylcyclohexylcarbamoyl)-2-azabicyclo[3.1.0]hexan-2-yl)-2-oxoethyl)-1H-indazole-3-carboxamide]	0.92 µM
CC1(C)CCC[C@@H](NC(=O)[C@@H]2C[C@@H](F)CN2C(=O)Cn2nc(C(N)=O)c3ccccc32)C1 [Example 82, 1-{2-[(2S,4R)-2-((R)-3,3-Dimethyl-cyclohexylcarbamoyl)-4-fluoro-pyrrolidin-1-yl]-2-oxo-ethyl}-1H-indazole-3-carboxylic acid amide]	0.038 µM
COC(=O)[C@@H]1CCC[C@H](NC(=O)[C@@H]2C[C@H]3C[C@H]3N2C(=O)Cn2nc(C(C)=O)c3cccnc32)C1 [Example 14, (1R,3S)-3-({(1R,3S,5R)-2-[2-(3-Acetyl-pyrazolo[3,4-b]pyridin-1-yl)-acetyl]-2-aza-bicyclo[3.1.0]hexane-3-carbonyl}-amino)-cyclohexanecarboxylic acid methyl ester]	2.43 µM
CC1(C)CCC[C@@H](NC(=O)[C@@H]2C[C@H]3C[C@H]3N2C(=O)Cn2nc(C(N)=O)c3ccc(Cl)cc32)C1 [Example 62, 6-Chloro-1-{2-[(1R,3S,5R)-3-((R)-3,3-dimethyl-cyclohexylcarbamoyl)-2-aza-bicyclo[3.1.0]hex-2-yl]-2-oxo-ethyl}-1H-indazole-3-carboxylic acid amide]	0.024 µM
CC(=O)c1nn(CC(=O)N2[C@@H]3C[C@@H]3C[C@H]2C(=O)N[C@@H]2CCC[C@H](C)C2)c2ccc(OCc3ncccn3)cc12 [Example 96, (1R,3S,5R)-2-{2-[3-Acetyl-5-(pyrimidin-2-ylmethoxy)-indazol-1-yl]-acetyl}-2-aza-bicyclo[3.1.0]hexane-3-carboxylic acid ((1R,3S)-3-methyl-cyclohexyl)-amide]	0.09 µM

Same assay, conditions: IC50, Factor D inhibition data using Method 1; substrate Z-Lys-thiobenzyl, fluorescence readout

SMILES	IC50
CC(=O)c1nn(CC(=O)N2[C@H](C(=O)NC3CCCC4(CC4)C3)C[C@@]3(CO)C[C@@H]23)c2cnccc12 (single isomer, unassigned) [Example 113]	0.09 µM
CC(=O)c1nn(CC(=O)N2[C@H](C(=O)NC3CCCC4(CC4)C3)C[C@@]3(CO)C[C@@H]23)c2cnccc12 (single isomer, unassigned) [Example 114]	1.28 µM

Same assay, conditions: read-out: IC50

SMILES	IC50
NC(=O)c1nn(CC(=O)N2[C@@H]3C[C@@H]3C[C@H]2C(=O)N[C@@H]2CCC[C@H](C(F)(F)F)C2)c2cnccc12 [Example 41, 1-{2-Oxo-2-[(1R,3S,5R)-3-((1R,3S)-3-trifluoromethyl-cyclohexylcarbamoyl)-2-aza-bicyclo[3.1.0]hex-2-yl]-ethyl}-1H-pyrazolo[3,4-c]pyridine-3-carboxylic acid amide]	0.114 µM
CC1(C)CCC[C@H](NC(=O)[C@@H]2C[C@@H](F)CN2C(=O)Cn2nc(C(N)=O)c3ccncc32)C1 [Example 70, 1-{2-[(2S,4R)-2-((S)-3,3-Dimethyl-cyclohexylcarbamoyl)-4-fluoro-pyrrolidin-1-yl]-2-oxo-ethyl}-1H-pyrazolo[3,4-c]pyridine-3-carboxylic acid amide]	2.09 µM
CC(=O)c1nn(CC(=O)N2[C@@H]3C[C@@H]3C[C@H]2C(=O)N[C@H]2CCCC(C)(C)C2)c2ccc(OCc3ncccn3)cc12 [Example 97, (1R,3S,5R)-2-{2-[3-Acetyl-5-(pyrimidin-2-ylmethoxy)-indazol-1-yl]-acetyl}-2-aza-bicyclo[3.1.0]hexane-3-carboxylic acid ((S)-3,3-dimethyl-cyclohexyl)-amide]	0.341 µM
CC(=O)c1nn(CC(=O)N2[C@@H]3C[C@@H]3C[C@H]2C(=O)NC2CC(C)CC(C)(C)C2)c2ncccc12 (stereo partly drawn) [Example 5, (1R,3S,5R)-2-[2-(3-Acetyl-pyrazolo[3,4-b]pyridin-1-yl)-acetyl]-2-aza-bicyclo[3.1.0]hexane-3-carboxylic acid (3,3,5-trimethyl-cyclohexyl)-amide]	0.022 µM
CC(=O)c1nn(CC(=O)N2[C@@H]3C[C@@H]3C[C@H]2C(=O)N[C@@H]2C[C@@H](O)CC(C)(C)C2)c2ccccc12 [Example 125, (1R,3S,5R)-2-(2-(3-acetyl-1H-indazol-1-yl)acetyl)-N-((1S,5S)-5-hydroxy-3,3-dimethylcyclohexyl)-2-azabicyclo[3.1.0]hexane-3-carboxamide]	1.1 µM
NC(=O)c1nn(CC(=O)N2[C@@H]3C[C@@H]3C[C@H]2C(=O)NC2CCCC(OC(F)(F)F)C2)c2ccccc12 (stereo partly drawn) [Example 33, 1-{2-Oxo-2-[(1R,3S,5R)-3-(trans-3-trifluoromethoxy-cyclohexylcarbamoyl)-2-aza-bicyclo[3.1.0]hex-2-yl]ethyl}-1H-indazole-3-carboxylic acid amide]	0.121 µM
CCc1cc2c(C(N)=O)nn(CC(=O)N3C[C@H](F)C[C@H]3C(=O)N[C@@H]3CCCC(C)(C)C3)c2cn1 [Example 81, 1-{2-[(2S,4R)-2-((R)-3,3-Dimethyl-cyclohexylcarbamoyl)-4-fluoro-pyrrolidin-1-yl]-2-oxo-ethyl}-5-ethyl-1H-pyrazolo[3,4-c]pyridine-3-carboxylic acid amide]	0.039 µM
CO[C@@H]1CCC[C@H](NC(=O)[C@@H]2C[C@H]3C[C@H]3N2C(=O)Cn2nc(C(C)=O)c3ccccc32)C1 [Example 44, (1R,3S,5R)-2-[2-(3-Acetyl-indazol-1-yl)-acetyl]-2-aza-bicyclo[3.1.0]hexane-3-carboxylic acid ((1S,3R)-3-methoxy-cyclohexyl)-amide]	1.88 µM
C[C@@H]1CCC[C@H](NC(=O)[C@@H]2C[C@H]3C[C@H]3N2C(=O)Cn2nc(C(N)=O)c3ccccc32)C1 [Example 48, 1-{2-[(1R,3S,5R)-3-((1S,3R)-3-Methyl-cyclohexylcarbamoyl)-2-aza-bicyclo[3.1.0]hex-2-yl]-2-oxo-ethyl}-1H-indazole-3-carboxylic acid amide]	1.32 µM
CO[C@H]1CCC[C@@H](NC(=O)[C@@H]2C[C@H]3C[C@H]3N2C(=O)Cn2nc(C(C)=O)c3ccccc32)C1 [Example 45, (1R,3S,5R)-2-[2-(3-Acetyl-indazol-1-yl)-acetyl]-2-aza-bicyclo[3.1.0]hexane-3-carboxylic acid ((1R,3S)-3-methoxy-cyclohexyl)-amide]	0.405 µM
